Each structure is given as a SMILES string.

The target in one assay is Acetylcholinesterase (Homo sapiens, UniProt P22303). Briefly: Inhibition of human erythrocyte AChE using S-acetylthiocholine iodide as substrate preincubated for 20 mins followed by substrate addition measured every 30 secs for 1 hr by Ellman's method.
Chain of Acetylcholinesterase (P22303 whole entry): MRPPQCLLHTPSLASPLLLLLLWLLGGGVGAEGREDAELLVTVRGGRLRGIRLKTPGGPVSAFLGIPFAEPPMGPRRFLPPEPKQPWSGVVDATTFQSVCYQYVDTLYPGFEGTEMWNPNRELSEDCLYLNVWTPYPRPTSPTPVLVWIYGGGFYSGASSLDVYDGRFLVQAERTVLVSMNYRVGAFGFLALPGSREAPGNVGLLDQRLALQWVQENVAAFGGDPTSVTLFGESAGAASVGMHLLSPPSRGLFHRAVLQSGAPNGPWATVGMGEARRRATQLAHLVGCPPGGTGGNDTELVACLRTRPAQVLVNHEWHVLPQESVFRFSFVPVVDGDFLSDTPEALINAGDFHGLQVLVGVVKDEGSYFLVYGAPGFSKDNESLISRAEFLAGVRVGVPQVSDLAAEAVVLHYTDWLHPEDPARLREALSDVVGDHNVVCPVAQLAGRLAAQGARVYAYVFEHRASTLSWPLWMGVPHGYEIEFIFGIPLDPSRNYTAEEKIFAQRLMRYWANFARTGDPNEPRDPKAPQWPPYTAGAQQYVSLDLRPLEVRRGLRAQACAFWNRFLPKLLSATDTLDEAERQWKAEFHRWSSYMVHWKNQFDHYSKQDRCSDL
Conditions: not given
On the technique in general: Ellman's reagent forms a yellow product with free thiols.
Usually IC50 stands for the concentration needed to halve the response being measured. Consider `C=C(C)[C@H](O)CC[C@]1(C)[C@@H](CC=C(C)C)C[C@@]2(CC=C(C)C)C(=O)[C@]1(C(=O)C(C)C)C(=O)C1=C2O[C@H](C(C)(C)O)C1`, for which the midpoint of inhibition, the IC50, lay at 26.4 µM.

`COC(C)(C)/C=C/C[C@]1(C)[C@@H](CC=C(C)C)C[C@]2(CC=C(C)C)C(=O)C3=C(O[C@@H](C(C)(C)O)C3)[C@@]1(C(=O)C(C)C)C2=O` yielded an IC50 of 7.17 µM.

With `CC(C)=CCC[C@]1(C)[C@@H](CC=C(C)C)C[C@@]2(CC=C(C)C)C(=O)[C@]1(C(=O)C(C)C)C(=O)C1=C2O[C@H](C(C)(C)O)[C@H]1O`, half-maximal inhibition (IC50) was put at 18.6 µM.

Take `C=C(C)[C@@H](O)CC[C@]1(C)[C@@H](CC=C(C)C)C[C@]23C[C@@H](C(C)(C)O)OC2=C(CC=C(C)C)C(=O)[C@@]1(C(=O)C(C)C)C3=O`: the IC50 was found to be 9.13 µM.

In turn, `CC(C)=CC[C@H]1C[C@@]2(CC=C(C)C)C(=O)[C@](C(=O)C(C)C)(C(=O)C3=C2O[C@H](C(C)(C)O)C3)[C@]1(C)CCC(=O)C(C)C` had an IC50 of 10.9 µM.

`C=C(C)[C@H](O)CC[C@]1(C)[C@@H](CC=C(C)C)C[C@]2(CC=C(C)C)C(=O)C3=C(O[C@H](C(C)(C)O)C3)[C@@]1(C(=O)C(C)C)C2=O` gave a half-inhibitory concentration (IC50) of 19.6 µM.

For the compound `C=C(C)[C@@H](O)CC[C@]1(C)[C@@H](CC=C(C)C)C[C@]2(CC=C(C)C)C(=O)C3=C(O[C@H](C(C)(C)O)C3)[C@@]1(C(=O)C(C)C)C2=O`, half-maximal inhibition (IC50) was put at 10.7 µM.

Take `CC(=O)[C@@]12C(=O)C(CC=C(C)C)=C3O[C@H](C(C)(C)O)C[C@]3(C[C@H](CC=C(C)C)[C@@]1(C)CCC=C(C)C)C2=O`: the 50% inhibitory concentration (IC50) came out at 8.75 µM.

Take `C=C(C)[C@H](O)CC[C@]1(C)[C@@H](CC=C(C)C)C[C@@]2(CC=C(C)C)C(=O)[C@]1(C(=O)C(C)C)C(=O)C1=C2O[C@@H](C(C)(C)O)C1`: the IC50 was found to be 25.1 µM.

`CC(C)=CCC[C@]1(C)[C@@H](CC=C(C)C)C[C@]2(CC=C(C)C)C(=O)C3=C(O[C@@H](C(C)(C)O)[C@@H]3O)[C@@]1(C(=O)C(C)C)C2=O` came in with an IC50 of 12.6 µM.

In turn, `CC(C)=CCC1=C2O[C@H](C(C)(C)O)C[C@@]23C[C@H](CC=C(C)C)[C@@](C)(CCC(=O)C(C)C)[C@@](C(=O)C(C)C)(C1=O)C3=O` yielded a concentration for half-maximal inhibition (IC50) of 24.3 µM.

For `CC(C)=CCC[C@]1(C)[C@@H](CC=C(C)C)C[C@]2(CC=C(C)C)C(=O)C3=C(O[C@H](C(C)(C)O)[C@H]3O)[C@@]1(C(=O)C(C)C)C2=O`, the IC50 came to 8.83 µM.

In turn, `CC(C)=CCC[C@]1(C)[C@@H](CC=C(C)C)C[C@@]2(CC=C(C)C)C(=O)[C@]1(C(=O)C(C)C)C(=O)C1=C2O[C@@H](C(C)(C)O)[C@@H]1O` gave an IC50 of 11.3 µM.

`COC(C)(C)/C=C/C[C@]1(C)[C@@H](CC=C(C)C)C[C@]2(CC=C(C)C)C(=O)C3=C(O[C@H](C(C)(C)O)C3)[C@@]1(C(=O)C(C)C)C2=O` yielded a concentration for half-maximal inhibition (IC50) of 3.98 µM.

The test system of another assay is SMMC-7721. Briefly: Cytotoxicity against human SMMC7721 cells assessed as reduction in cell viability after 48 hrs by MTS assay. To be noted: SMMC-7721, 48 h. The class given is functional, cell-based.
Consider `C=C(C)[C@H](O)CC[C@]1(C)[C@@H](CC=C(C)C)C[C@@]2(CC=C(C)C)C(=O)[C@]1(C(=O)C(C)C)C(=O)C1=C2O[C@H](C(C)(C)O)C1`, for which the IC50 came to 9.1 µM.

`CC(=O)[C@@]12C(=O)C(CC=C(C)C)=C3O[C@H](C(C)(C)O)C[C@]3(C[C@H](CC=C(C)C)[C@@]1(C)CCC=C(C)C)C2=O`: the IC50 came to 10 µM.

For the origin of these results see ChEMBL document CHEMBL4118038, “Tricyclic Polyprenylated Acylphloroglucinols from St John's Wort, Hypericum perforatum” (J Nat Prod, 2017).
